From US20160376659A1, “Breast Cancer Biomarker” (The University of Manchester, priority 2015, published 2016)
“Also recorded” adds a separate entry of the source.

Experiments:
Design in all cases: species or system mice
[1] = system: metastatic (BB3RC31) PDX cells; assay: Secondary tumor formation of cells from PDX tumors treated in vivo; conditions: 90 days post-implantation; for tumor-initiating capacity in secondary mouse hosts: cells from PDX tumors treated in vivo
Protocol: (§1) Tamoxifen citrate (Sigma, T9262, 10 mg/kg/day) and RO4929097 (Cellagen Technology, 3 mg/kg/day) were administered by oral gavage (0.1 ml/dose) on a five day from seven basis (weekends excluded) for fourteen days. Tamoxifen citrate and RO4929097 were prepared in 1% carboxymethylcellulose (Sigma, C9481) dissolved in distilled water. Fulvestrant (kindly provided by Astrazeneca, 200 mg/kg/week) was administered by subcutaneous injection (0.1 ml/dose) on a weekly basis for fourteen days. The HBC×22 and HBC×34 tamoxifen-resistant PDXs have been established by our collaborators in the Curie Institute (Cottu el al, 2014) and were treated for fourteen days in the presence or absence of the gamma-secretase inhibitor RO4929097 (10 mg/kg/day, oral gavage). Xenografts were collected in ice cold DMEM media for live cell assays, histological analysis and RNA and protein extraction. Patient-derived xenograft single cell suspension was obtained using a collagenase-hyaluronidase mixture for digestion (Stem Cell Technologies).
(§2) To determine tumor initiation capacity of MCF-7 cells or metastatic (BB3RC31) PDX cells treated in vitro or in vivo, respectively, Nude or NSG mice were injected subcutaneously with cells in mammosphere media mixed 1:1 with Matrigel. 8 μg/ml of 17-beta estradiol was administered in drinking water or 90-day slow release estrogen pellets were implanted sub-cutaneously into mice two days before cell injection (0.72 mg, Innovative Research of America). Serial limiting dilution implantation of MCF-7 cells (10.000, 1.000, 100, 10 cells) and the Extreme Limiting Dilution Analysis (ELDA) software (The Walter and Eliza Hall Institute of Medical Research) were used to perform calculations (95% CI) of tumor initiation. Positive tumor growth was assessed at day 60 or 90 after cell injection by determining the mice bearing a tumor greater than 100 mm^3 and is represented as mice positive for growth/mice tested (n=4 per condition in all experiments). p values were calculated with Chi-squared test.

MCF-7 cells = assay: In vivo tumor initiation of pre-treated MCF-7 cells (limiting dilution, ELDA); conditions: for in vivo tumor initiation capacity: 6 days in vitro pre-treatment, 100,000 MCF-7 cells, Nude mice, day 90; for enrichment in tumor-initiating cell frequency (ELDA): MCF-7 pre-treated six days, limiting dilution in NSG mice, day 60
Protocol: as §2, with “Serial limiting dilution implantation of MCF-7 cells (10.000, 1.000, 100, 10 cells) and the Extreme Limiting Dilution Analysis (ELDA) software (The Walter and Eliza Hall Institute of Medical Research) were used to perform calculations (95% CI) of tumor initiation.” left out

[2] = system: Early (HBC×34) and metastatic (BB3RC31) BC estrogen-dependent patient-derived xenograft tumors; assay: 14 day in vivo window treatment of ER+ PDX tumors: tumor growth, Ki67, ER, PR; conditions: for proliferation marker Ki67 / tumor growth: 14 days, tamoxifen 10 mg/kg/day oral, fulvestrant 200 mg/kg/week s.c., RO4929097 3 mg/kg/day oral; for ER and PR protein expression levels: PDX tumors, 14 days in vivo, immunohistochemistry
Protocol: Early (HBC×34) and metastatic (BB3RC31) BC estrogen-dependent PDXs were administered with 8 ug/ml of 17-beta estradiol in drinking water at all times and were treated with drugs when tumors reached 200-300 mm^3. Experiments were performed using PDX tumors between passages 5 and 8. Animal weight and tumor size was measured bi-dimensionally using callipers twice a week. The HBC×34 model was kindly provided by Dr Elisabetta Marangoni from Institute Curie, Paris (Cottu et al., 2012).
as §1
Tissue microarrays (TMAs) were constructed from all formalin fixed and paraffin embedded tissue. 3×1 mm cores were taken per tissue block, and TMAs were cut into 3 μm thick sections and analysed by immunohistochemistry. Antibodies utilised were anti-ERα (Thermo, SP1), anti-PgR (Dako, M3569), anti-Ki67 (Dako, M7240), anti-HER2 (Vector Laboratories, VP-C380), anti-Hes1 (Abcam, ab108937) and anti-ALDH1 (BD Biosciences, 611195). Antigen retrieval was performed either using Target Retrieval Solution pH9 (Dako S2367, for ER, PR, Ki67 and ALDH1), Target Retrieval Solution pH6 (Dako S1699, for Hes1) or in 10 mM Citrate buffer (for HER2) in a […] water bath for 25 mins. All antibodies were detected using Dako EnVision Detection System Peroxidase/DAB, Rabbit/Mouse (Dako, K5007) and sections were counterstained with haematoxylin. Staining was quantified using Definiens Tissue Studio software. The percentage of positive epithelial cells was scored on 3 cores per tissue sample. For ER immunocytochemistry, approximately 50.000 cells were FACS sorted and then cytospun for 5 min at 80 G on poly-lysine coated slides. Cells were fixed with 4% paraformaldehyde (5 min), permeabilised with acetone (4 min) and methanol (2 min), and then blocked for 10 min with Peroxidase Blocking Reagent (Dako, S2001) and further 10 min with 3% goat serum before incubation with primary antibody. ER was then detected as described above for immunohistochemistry.

SMILES	tumor-initiating capacity in secondary mouse hosts [1]	in vivo tumor initiation capacity (MCF-7 cells)	enrichment in tumor-initiating cell frequency (ELDA) (MCF-7 cells) [fold]	proliferation marker Ki67 [2]	tumor growth [2]	ER and PR protein expression levels [2]	PR expression ([2]; HBC×34 (early BC) PDX)	stimulation of tumorigenicity following in vivo tamoxifen and fulvestrant treatment ([1]; combination with RO4929097)	enrichment in tumor-initiating cell frequency following tamoxifen or fulvestrant pre-treatment (MCF-7 cells; co-treatment with RO4929097 10 μM)
C[C@]12CC[C@@H]3c4ccc(O)cc4C[C@@H](CCCCCCCCC[S+]([O-])CCCC(F)(F)C(F)(F)F)[C@H]3[C@@H]1CC[C@@H]2O (stereo partly drawn) [fulvestrant]	stimulation of tumorigenicity	enriched	11	decrease; also recorded: reduced	reduced	reduced			
CC/C(=C(\c1ccccc1)c1ccc(OCCN(C)C)cc1)c1ccccc1 [tamoxifen, (Z)-2-[4-(1,2-diphenylbut-1-enyl)phenoxy]-N,N-dimethylethanamine]	stimulation of tumorigenicity	enriched	11	decrease; also recorded: reduced	reduced		down-regulated		
CC(C)(C(=O)NCC(F)(F)C(F)(F)F)C(=O)N[C@@H]1C(=O)Nc2ccccc2-c2ccccc21 [RO4929097]	significantly reduced			no impact	no impact	not modified		completely reversed	reversed
